{"source": "patent US10130611B2", "about": "“Use of benzo-heterocycle derivatives for preventing and treating cancer or for inhibiting cancer metastasis” (MEDICINAL BIOCONVERGENCE RESEARCH CENTER, priority 2009, dated 2018)", "key": {"[1]": {"target": "T1, KRS-AIMP2 (Homo sapiens, UniProt Q15046)", "T1 construct": "expressed in transfected cells; host or cells: yeast (EGY/SH is stated for the KRS/LR pair)", "T1 sequence (Q15046 whole entry)": "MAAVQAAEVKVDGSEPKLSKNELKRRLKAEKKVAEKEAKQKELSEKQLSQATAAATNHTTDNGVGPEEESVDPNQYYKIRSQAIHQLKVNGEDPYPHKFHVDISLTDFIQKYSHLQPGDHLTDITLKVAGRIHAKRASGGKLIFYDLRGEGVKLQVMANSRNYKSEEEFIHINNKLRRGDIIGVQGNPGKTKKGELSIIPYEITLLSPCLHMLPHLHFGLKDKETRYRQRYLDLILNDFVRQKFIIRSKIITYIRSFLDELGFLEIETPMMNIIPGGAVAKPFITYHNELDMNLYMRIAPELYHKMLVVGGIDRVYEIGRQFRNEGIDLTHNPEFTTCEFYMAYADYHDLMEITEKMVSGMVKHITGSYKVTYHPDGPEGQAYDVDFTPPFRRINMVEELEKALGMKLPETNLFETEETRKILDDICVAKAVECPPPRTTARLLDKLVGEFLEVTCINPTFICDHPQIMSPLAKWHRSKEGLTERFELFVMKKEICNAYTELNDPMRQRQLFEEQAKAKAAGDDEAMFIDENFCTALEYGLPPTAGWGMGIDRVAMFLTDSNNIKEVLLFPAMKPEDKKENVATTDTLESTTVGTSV", "experiment": "Yeast two hybrid specificity test, LexA-KRS/B42-AIMP2 pair", "type": "cell-based", "conditions": "compound at 50 μg/ml, DMSO control 1.3204", "procedure": "On the compound of the present invention obtained by screening a library of compounds, the extent of inhibition on the interaction between KRS and laminin receptor (67LR) was determined by a yeast two hybrid assay, as described below. KRS, LR, AIMP2, AIMP3 and MRS were cloned at LexA vector (clontech) and B42 vector (clontech) each so as to produce required vectors. From among the vectors, LexA-KRS vector and B42-LR vector were co-transformed into yeast EGY/SH cells, and then the yeast cells were diluted to an absorbance (540 nm wavelength) of 0.2 in galactose medium not containing uracil (Ura), histidine (His), tryptophane (Trp) and leucine (Leu), and placed in an amount of 200 u in a 96 well plate. 1 μl of each compound at a concentration of 10 mg/ml was placed in each well, incubated for 6 days, and the absorbance was measured at 540 nm. […] The inhibitory specificity of the selected compound was tested by using two different interaction pairs such as LexA-KRS/B42-AIMP2 and LexA-MRS/B42-AIMP3. […]"}, "[2]": {"tested_on": "A549 cells", "experiment": "Western blotting of 67LR and 37LRP levels in A549 cells", "type": "cell-based, human", "conditions": "KL1 in different amounts", "procedure": "As a control, an OD level of cells treated with DMSO was measured. FIG. 32 is a photograph showing cell growth in wells containing yeast cells having indicated interaction pairs in the presence or absence of CAND-KL1. In FIG. 33, in 293 cells, through co-immunoprecipitation, the KL1-dose-dependent effect on the interaction between KRS and 67LR was tested. The cells were treated with KL1 for 3 hours, 67LR was immunoprecipitated, and co-precipitation of KRS was determined by western blotting. In FIG. 34, in the presence of KL1 in indicated levels, a laminin receptor labeled with radioisotope was mixed with GST-KRS (1 μg). GST-KRS was precipitated with glutathione-Sepharose beads, and co-precipitated laminin receptor was detected with autoradiography. In FIG. 35, in A549 cells, the effect of KL1 on the intracellular level of 67LR and 37LRP was tested with western blotting. […] GST-KRS was immobilized on a CM5 Sensor Chip, and the binding was measured by a resonance unit (RU) at indicated concentrations (indicated by different colors). […]\nFrom among the compounds, the inventors also examined whether the compound represented by Formula 15 (indicated by CAND-KL1, and KL1) can inhibit the intracellular interaction between KRS and 67LR. […] Then, 67LR was immunoprecipitated with its antibody, and co-immunoprecipitation of KRS was determined. […]"}, "[3]": {"target": "T2, interaction between KRS and laminin receptor (67LR) (Homo sapiens, UniProt Q15046)", "T2 construct": "expressed in transfected cells; host or cells: yeast EGY/SH cells", "T2 sequence (Q15046 whole entry)": "as above", "experiment": "Yeast two hybrid growth assay, LexA-KRS/B42-LR pair", "type": "cell-based", "procedure": "On the compound of the present invention obtained by screening a library of compounds, the extent of inhibition on the interaction between KRS and laminin receptor (67LR) was determined by a yeast two hybrid assay, as described below. KRS, LR, AIMP2, AIMP3 and MRS were cloned at LexA vector (clontech) and B42 vector (clontech) each so as to produce required vectors. From among the vectors, LexA-KRS vector and B42-LR vector were co-transformed into yeast EGY/SH cells, and then the yeast cells were diluted to an absorbance (540 nm wavelength) of 0.2 in galactose medium not containing uracil (Ura), histidine (His), tryptophane (Trp) and leucine (Leu), and placed in an amount of 200 u in a 96 well plate. 1 μl of each compound at a concentration of 10 mg/ml was placed in each well, incubated for 6 days, and the absorbance was measured at 540 nm. […] The inhibitory specificity of the selected compound was tested by using two different interaction pairs such as LexA-KRS/B42-AIMP2 and LexA-MRS/B42-AIMP3.\nIn order to determine if the compound of the present invention controls the interaction between KRS and laminin receptor, the present inventors determined the interaction between KRS and 67LR through treatment of the compound of the present invention."}}, "data": [{"compound": "CCC(C(=O)O)n1/c(=N/C(=O)c2ccc(C)cc2)sc2ccccc21", "note": "(centres unmarked) [Compound of formula 15, 2-[2-(4-Methyl-benzoylimino)-benzothiazol-3-yl]-butyric acid]", "values": [{"measurement": "KRS-AIMP2 (yeast growth, OD level)", "setting": "[1]", "result": 0.9497}, {"measurement": "cytoplasmic 37LRP level", "setting": "[2]", "result": "no effect"}, {"measurement": "intracellular level of 67LR", "setting": "[2]", "result": "decreased by the amount of added KL1"}, {"measurement": "inhibition at 10000 µg/mL (stock)", "setting": "[3]; growth inhibition of yeast EGY/SH cells with LexA-KRS/B42-LR vs control, 1 μl of 10 mg/ml compound per well, 6 days, absorbance 540 nm, read-out: Inhibition rate(%)", "result": 52.1, "unit": "%"}, {"measurement": "KRS-67LR (yeast growth, OD level)", "setting": "[3]; yeast two hybrid pair KRS-67LR, compound at 50 μg/ml, DMSO control 0.4241", "result": 0.2223}]}]}
